We go through 21 molecules from patent US20250361234A1 (NICO THERAPEUTICS, INC., priority 2022, published 2025).

In the assay the target is T1, full-length SARM1 (FL-SARM1) (Homo sapiens, UniProt Q6SZW1).
T1 sequence (Q6SZW1 28-724): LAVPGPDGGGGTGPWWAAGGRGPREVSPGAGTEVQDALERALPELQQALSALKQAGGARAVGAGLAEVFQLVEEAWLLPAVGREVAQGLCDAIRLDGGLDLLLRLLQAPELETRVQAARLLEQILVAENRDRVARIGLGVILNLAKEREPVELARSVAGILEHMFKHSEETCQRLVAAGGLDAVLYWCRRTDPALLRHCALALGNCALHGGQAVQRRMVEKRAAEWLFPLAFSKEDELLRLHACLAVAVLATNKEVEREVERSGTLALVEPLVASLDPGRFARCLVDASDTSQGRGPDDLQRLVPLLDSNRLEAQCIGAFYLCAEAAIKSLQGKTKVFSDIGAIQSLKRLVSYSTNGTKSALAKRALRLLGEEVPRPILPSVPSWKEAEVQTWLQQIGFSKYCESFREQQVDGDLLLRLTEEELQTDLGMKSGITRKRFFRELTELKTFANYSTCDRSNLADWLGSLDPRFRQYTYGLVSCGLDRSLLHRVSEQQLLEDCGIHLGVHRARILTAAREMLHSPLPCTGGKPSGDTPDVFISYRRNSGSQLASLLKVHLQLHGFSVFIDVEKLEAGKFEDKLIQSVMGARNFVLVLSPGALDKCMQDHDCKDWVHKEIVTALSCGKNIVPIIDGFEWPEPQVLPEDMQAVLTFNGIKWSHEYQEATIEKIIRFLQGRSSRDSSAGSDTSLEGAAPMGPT
Kind of assay: FL-SARM1 cellular lysate assay (NAD/NADH-Glo readout of remaining NAD+). To be noted: SARM1 cellular lysate from transfected HEK293T cells, NAD+ and NMN, 11 point curve.

`Cc1nnc([C@@]23C[C@@H](C)C[C@@H](C2)N3C(=O)Nc2ccc(Cl)c(-c3cncc(F)c3)c2)o1` (single isomer, unassigned) [Example 134, cis-N-[4-chloro-3-(5-fluoro-3-pyridinyl)phenyl]-3-methyl-1-(5-methyl-1,3,4-oxadiazol-2-yl)-6-azabicyclo[3.1.1]heptane-6-carboxamide]: it took 0.02 µM to reach half-maximal inhibition (Activity (μM)) (IC50) and the IC50 (Activity) was 0.0001 to 1 µM.

As to `Cc1nnc([C@]23C[C@H](C)C[C@H](C2)N3C(=O)Nc2cc(-c3cncc(F)c3)c(C(F)(F)F)cc2F)o1` (single isomer, unassigned) [Example 135, cis-N-[2-fluoro-5-(5-fluoro-3-pyridinyl)-4-(trifluoromethyl)phenyl]-3-methyl-1-(5-methyl-1,3,4-oxadiazol-2-yl)-6-azabicyclo[3.1.1]heptane-6-carboxamide], the IC50 was 0.03 µM (Activity (μM)) and 0.0001 to 1 µM (Activity).

On to `Cc1ccc(NC(=O)N2C3C[C@H]2C[C@]2(C3)CC2(F)F)cc1-c1cncc(F)c1` (stereo in doubt) [Example 10, trans-2′,2′-difluoro-N-(3-(5-fluoropyridin-3-yl)-4-methylphenyl)-6-azaspiro[bicyclo[3.1.1]heptane-3,1′-cyclopropane]-6-carboxamide], for which the IC50 is, setting by setting: (Activity (μM)) 0.3 µM; (Activity) 0.0001 to 1 µM.

`Cc1ccc(NC(=O)N2C3C[C@@H]2C[C@@](C)(C#N)C3)cc1-c1cncc(F)c1` (stereo in doubt) [Example 43, cis-3-cyano-N-(3-(5-fluoropyridin-3-yl)-4-methylphenyl)-3-methyl-6-azabicyclo[3.1.1]heptane-6-carboxamide]: the half-maximal inhibitory concentration (IC50) was 0.5 µM (Activity (μM)) and 0.0001 to 1 µM (Activity).

Consider `Cc1ccc(NC(=O)N2C3C[C@H](CF)C[C@@H]2C3)cc1-c1cncc(F)c1` [Example 1, cis-3-(fluoromethyl)-N-(3-(5-fluoropyridin-3-yl)-4-methylphenyl)-6-azabicyclo[3.1.1]heptane-6-carboxamide], for which the IC50 is 0.06 µM (Activity (μM)) and 0.0001 to 1 µM (Activity).

With `CCO[C@@H]1C[C@@H]2C[C@H](C1)N2C(=O)Nc1ccc(C)c(-c2cncc(F)c2)c1` [Example 2, cis-3-ethoxy-N-(3-(5-fluoropyridin-3-yl)-4-methylphenyl)-6-azabicyclo[3.1.1]heptane-6-carboxamide], the IC50 by setting is: (Activity (μM)) 3.3 µM; (Activity) 1 to 10 µM.

Turning to `CO[C@H]1CC2C[C@H](C1)N2C(=O)Nc1cc(-c2cncc(F)c2)c(C)cc1F` [Example 3, trans-N-(2-fluoro-5-(5-fluoropyridin-3-yl)-4-methylphenyl)-3-methoxy-6-azabicyclo[3.1.1]heptane-6-carboxamide], the half-inhibitory concentration (IC50) (Activity (μM)) is 2.5 µM and the IC50 (Activity) lay within 1 to 10 µM.

As to `Cc1ccc(NC(=O)N2C3C[C@@H](C(F)F)C[C@@H]2C3)cc1-c1cncc(F)c1` [Example 4, trans-3-(difluoromethyl)-N-(3-(5-fluoropyridin-3-yl)-4-methylphenyl)-6-azabicyclo[3.1.1]heptane-6-carboxamide], the IC50 is, setting by setting: (Activity (μM)) 0.1 µM; (Activity) 0.0001 to 1 µM.

For `Cc1ccc(NC(=O)N2C3CCC2(C)CC3)cc1-c1cncc(F)c1` [Example 5, N-(3-(5-fluoropyridin-3-yl)-4-methylphenyl)-1-methyl-7-azabicyclo[2.2.1]heptane-7-carboxamide], the IC50 reads like this: (Activity (μM)) 0.3 µM; (Activity) 0.0001 to 1 µM.

Regarding `Cc1ccc(NC(=O)N2C3C[C@H]2C[C@H](n2cccn2)C3)cc1-c1cncc(F)c1` [Example 6, trans-N-(3-(5-fluoropyridin-3-yl)-4-methylphenyl)-3-(1H-pyrazol-1-yl)-6-azabicyclo[3.1.1]heptane-6-carboxamide], the IC50 is 6.6 µM (Activity (μM)) and 1 to 10 µM (Activity).

With `CO[C@@H]1CC[C@H]2CC1N2C(=O)Nc1ccc(C)c(-c2cncc(F)c2)c1` [Example 7, trans-N-(3-(5-fluoropyridin-3-yl)-4-methylphenyl)-2-methoxy-6-azabicyclo[3.1.1]heptane-6-carboxamide], the IC50 was 2 µM (Activity (μM)) and 1 to 10 µM (Activity).

In the case of `Cc1ccc(NC(=O)N2C3C[C@H]2C[C@@H](C(C)(C)O)C3)cc1-c1cncc(F)c1` [Example 9, cis-N-(3-(5-fluoropyridin-3-yl)-4-methylphenyl)-3-(2-hydroxypropan-2-yl)-6-azabicyclo[3.1.1]heptane-6-carboxamide], it took 4.2 µM to reach half-maximal inhibition (Activity (μM)) (IC50) and the IC50 (Activity) lay within 1 to 10 µM.

Molecule `Cc1ccc(NC(=O)N2C3C[C@H]2C[C@@]2(C3)CC2(F)F)cc1-c1cncc(F)c1` [Example 11, cis-2′,2′-difluoro-N-(3-(5-fluoropyridin-3-yl)-4-methylphenyl)-6-azaspiro[bicyclo[3.1.1]heptane-3,1′-cyclopropane]-6-carboxamide] displayed an IC50 (Activity (μM)) of 0.08 µM and an IC50 (Activity) of 0.0001 to 1 µM.

Take `Cc1ccc(NC(=O)N2C3C[C@@H]2C[C@@H](C(C)(C)O)C3)cc1-c1cncc(F)c1` [Example 14, trans-N-(3-(5-fluoropyridin-3-yl)-4-methylphenyl)-3-(2-hydroxypropan-2-yl)-6-azabicyclo[3.1.1]heptane-6-carboxamide]: the IC50 (Activity (μM)) turned out to be 23.9 µM and the IC50 (Activity) was greater than 10 µM.

On to `COC[C@H]1CC[C@H]2CC1N2C(=O)Nc1ccc(C)c(-c2cncc(F)c2)c1` [Example 15, cis-N-(3-(5-fluoropyridin-3-yl)-4-methylphenyl)-2-(methoxymethyl)-6-azabicyclo[3.1.1]heptane-6-carboxamide], for which the IC50 runs as follows: (Activity (μM)) 1.7 µM; (Activity) 1 to 10 µM.

Molecule `Cc1ccc(NC(=O)N2C[C@@H]3CC2C[C@H]3C#N)cc1-c1cncc(F)c1` [Example 16, cis-5-cyano-N-(3-(5-fluoropyridin-3-yl)-4-methylphenyl)-2-azabicyclo[2.2.1]heptane-2-carboxamide] had an IC50 (Activity (μM)) of 41 µM and an IC50 (Activity) greater than 10 µM.

On to `Cc1ccc(NC(=O)N2C3C[C@H](C)C[C@@H]2C3)cc1-c1cccnc1` [Example 17, cis-3-methyl-N-(4-methyl-3-(pyridin-3-yl)phenyl)-6-azabicyclo[3.1.1]heptane-6-carboxamide], for which the IC50 (Activity (μM)) was found to be 0.008 µM and the concentration for half-maximal inhibition (IC50) (Activity) is 0.0001 to 1 µM.

For `Cc1ccc(NC(=O)N2CC3CCC2C3)cc1-c1cncc(F)c1` (stereo not drawn) [Example 18, N-(3-(5-fluoropyridin-3-yl)-4-methylphenyl)-2-azabicyclo[2.2.1]heptane-2-carboxamide], the IC50 is, setting by setting: (Activity (μM)) 1 µM; (Activity) 1 to 10 µM.

On to `Cc1ccc(NC(=O)N2C[C@H]3C[C@@H]2CN3c2ncccn2)cc1-c1cncc(F)c1` [Example 19, (1R,4R)-N-(3-(5-fluoropyridin-3-yl)-4-methylphenyl)-5-(pyrimidin-2-yl)-2,5-diazabicyclo[2.2.1]heptane-2-carboxamide], for which the IC50 by setting is: (Activity (μM)) 19.8 µM; (Activity) greater than 10 µM.

Take `Cc1ccc(NC(=O)N2[C@H](C)CCC[C@@H]2C)cc1-c1cncc(F)c1` [Example 21, cis-N-(3-(5-fluoropyridin-3-yl)-4-methylphenyl)-2,6-dimethylpiperidine-1-carboxamide]: the IC50 by setting is: (Activity (μM)) 1.5 µM; (Activity) 1 to 10 µM.

Take `Cc1ccc(NC(=O)N2[C@H](C)CCC[C@H]2C)cc1-c1cncc(F)c1` [Example 22, (2R,6R)-N-(3-(5-fluoropyridin-3-yl)-4-methylphenyl)-2,6-dimethylpiperidine-1-carboxamide]: the half-maximal inhibitory concentration (IC50) reads like this: (Activity (μM)) 1.2 µM; (Activity) 1 to 10 µM.
